Measurements: patent US8877741B2, “Pyrrolidine derivatives, pharmaceutical compositions and uses thereof” (Boehringer Ingelheim International GmbH, priority 2013, dated 2014)

molecular target: human ACC2 (Homo sapiens (Human), UniProt O00763); experiment: ACC2 assay, spectrophotometric 384 well assay (NADH-linked kinetic method); format: biochemical; settings: human ACC2 construct lacking the 128 N-terminal amino acids; coupled lactate dehydrogenase/pyruvate kinase reaction, 340 nm, 25° C.
Protocol: Spectrophotometric 384 Well Assay
Malonyl CoA formation by acetyl CoA carboxylases is stoichometrically linked to the consumption of ATP. ACC2 activity is measured in a NADH-linked kinetic method measuring ADP generated during the ACC reaction using a coupled lactate dehydrogenase/pyruvate kinase reaction.
For biological testing, a human ACC2 construct which lacks the 128 amino acids at the N-terminus for increased solubility (nt 385-6966 in Genbank entry AJ575592) is cloned. The protein is then expressed in insect cells using a baculoviral expression system. Protein purification is performed by anion exchange.
All compounds are dissolved in dimethyl sulfoxide (DMSO) to a concentration of 10 mM.
The enzymatic reaction is then started by addition of a mixture of NADH, acetyl Coenzyme A (both 2000 μM f.c.) and ATP (500 uM f.c.). The decrease of the optical density (slope S) is then determined at 25° C. at a wavelength of 340 nm over 15 minutes in a spectrophotometric reader.
Each assay microtiter plate contains wells with vehicle instead of compound as controls for the non-inhibited enzyme (100% CTL; ‘HIGH’) and wells without acetyl-CoA as controls for non-specific NADH degradation (0% CTL; ‘LOW’).
The slope S is used for calculation of % CTL=(S(compound)−S(‘LOW’))/(S(‘HIGH’)−S(‘LOW’))*100.
For IC50 value determination, the sample slope in the presence of the test compound after subtraction of the low controls (S(compound)−S(‘LOW’)) are used.
An IC50 value is derived from the compound slopes at different dosages after subtraction of the low controls (S(compound)−S(‘LOW’)) by non-linear regression curve fitting (equation y=(A+((B−A)/(1+((C/x)^D))))).

human ACC2, sequence (O00763 129-2458): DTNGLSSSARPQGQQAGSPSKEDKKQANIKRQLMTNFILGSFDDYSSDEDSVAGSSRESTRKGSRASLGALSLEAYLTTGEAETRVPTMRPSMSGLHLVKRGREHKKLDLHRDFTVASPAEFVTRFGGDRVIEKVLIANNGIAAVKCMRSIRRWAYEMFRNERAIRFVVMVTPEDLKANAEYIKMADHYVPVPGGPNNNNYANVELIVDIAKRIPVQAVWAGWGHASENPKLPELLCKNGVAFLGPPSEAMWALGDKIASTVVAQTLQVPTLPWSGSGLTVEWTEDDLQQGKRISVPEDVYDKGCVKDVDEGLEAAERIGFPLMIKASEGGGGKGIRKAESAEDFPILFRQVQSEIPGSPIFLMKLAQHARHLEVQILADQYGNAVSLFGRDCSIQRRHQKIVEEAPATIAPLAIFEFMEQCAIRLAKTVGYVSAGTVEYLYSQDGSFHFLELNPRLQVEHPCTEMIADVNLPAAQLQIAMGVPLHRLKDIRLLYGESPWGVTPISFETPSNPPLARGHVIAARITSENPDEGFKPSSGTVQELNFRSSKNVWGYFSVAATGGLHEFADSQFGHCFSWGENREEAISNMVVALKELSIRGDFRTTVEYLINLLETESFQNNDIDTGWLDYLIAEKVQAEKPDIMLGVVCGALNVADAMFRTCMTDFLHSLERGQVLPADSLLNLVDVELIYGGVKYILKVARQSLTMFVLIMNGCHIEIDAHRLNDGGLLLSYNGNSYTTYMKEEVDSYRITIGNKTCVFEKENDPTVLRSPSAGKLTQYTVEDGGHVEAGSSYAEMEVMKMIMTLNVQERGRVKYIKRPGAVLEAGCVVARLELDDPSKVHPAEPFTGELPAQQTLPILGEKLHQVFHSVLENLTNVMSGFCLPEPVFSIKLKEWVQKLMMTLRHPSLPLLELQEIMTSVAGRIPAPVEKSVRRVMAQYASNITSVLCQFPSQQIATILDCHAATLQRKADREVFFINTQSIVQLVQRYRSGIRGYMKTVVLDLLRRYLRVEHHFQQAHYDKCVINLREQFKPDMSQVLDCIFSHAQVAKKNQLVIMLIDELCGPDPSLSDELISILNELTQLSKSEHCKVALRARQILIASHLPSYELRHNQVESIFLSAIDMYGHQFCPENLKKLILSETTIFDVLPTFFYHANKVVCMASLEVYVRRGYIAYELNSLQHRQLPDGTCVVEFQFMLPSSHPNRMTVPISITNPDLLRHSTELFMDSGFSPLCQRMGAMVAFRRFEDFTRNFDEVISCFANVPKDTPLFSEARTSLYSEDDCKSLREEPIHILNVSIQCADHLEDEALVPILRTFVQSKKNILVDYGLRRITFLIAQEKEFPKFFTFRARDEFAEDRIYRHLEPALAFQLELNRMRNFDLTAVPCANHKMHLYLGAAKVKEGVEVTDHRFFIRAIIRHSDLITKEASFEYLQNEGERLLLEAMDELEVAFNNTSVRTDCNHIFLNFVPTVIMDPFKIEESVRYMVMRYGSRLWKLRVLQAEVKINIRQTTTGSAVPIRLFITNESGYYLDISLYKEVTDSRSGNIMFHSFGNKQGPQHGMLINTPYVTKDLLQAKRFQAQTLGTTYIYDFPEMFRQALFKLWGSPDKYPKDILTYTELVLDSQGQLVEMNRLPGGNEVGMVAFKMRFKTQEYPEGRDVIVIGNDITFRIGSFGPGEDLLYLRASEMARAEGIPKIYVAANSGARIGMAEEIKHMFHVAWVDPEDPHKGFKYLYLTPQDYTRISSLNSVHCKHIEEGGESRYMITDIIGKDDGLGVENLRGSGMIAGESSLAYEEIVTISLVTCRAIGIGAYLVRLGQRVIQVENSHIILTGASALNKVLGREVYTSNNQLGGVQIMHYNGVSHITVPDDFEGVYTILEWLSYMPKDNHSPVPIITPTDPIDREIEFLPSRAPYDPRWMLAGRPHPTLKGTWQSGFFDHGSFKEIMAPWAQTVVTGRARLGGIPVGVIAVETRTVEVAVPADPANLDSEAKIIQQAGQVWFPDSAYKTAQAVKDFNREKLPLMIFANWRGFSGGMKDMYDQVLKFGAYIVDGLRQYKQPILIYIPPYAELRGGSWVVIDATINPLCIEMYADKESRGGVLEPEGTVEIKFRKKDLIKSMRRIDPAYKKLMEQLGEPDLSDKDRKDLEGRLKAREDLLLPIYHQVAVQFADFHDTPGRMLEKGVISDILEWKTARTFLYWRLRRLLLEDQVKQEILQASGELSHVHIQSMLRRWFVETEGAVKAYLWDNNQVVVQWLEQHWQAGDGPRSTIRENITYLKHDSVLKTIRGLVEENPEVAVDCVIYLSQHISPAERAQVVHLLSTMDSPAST

Structure (SMILES) | IC50 [nM]
Cc1ncoc1C(=O)N[C@@H](C)c1ccc(OC2CCN(c3cccc(C(F)(F)F)n3)C2)cc1 (stereo partly shown) [Example 2.39] | 610
CC(=O)N[C@@H](C)c1ccc(O[C@@H]2CCN(c3ccc(OCC4CC4)cn3)C2)cc1 [Example 1.96] | 114
CC(=O)N[C@@H](C)c1ccc(OC2CCN(c3nc(C(F)(F)F)ccc3F)C2)cc1 (stereo partly shown) [Example 1.36] | 168
COCC(=O)Nc1nc(C)c(C(=O)N[C@@H](C)c2ccc(OC3CCN(c4ccc(OCC5CC5(F)F)cn4)C3)cc2)s1 (stereo partly shown) [Example 2.120] | 37
CC(=O)N[C@@H](C)c1ccc(O[C@@H]2CCN(c3ccc(OCC4CC4(F)F)cn3)C2)cc1 (stereo partly drawn) [Example 1.1, N—((1S)-1-(4-((3R)-1-(5-((2,2-Difluorocyclopropyl)methoxy)pyridin-2-yl)pyrrolidin-3-yloxy)phenyl)ethyl)acetamide] | 46
CC(=O)N[C@@H](C)c1ccc(O[C@@H]2CCN(c3ccnc(OCC(F)F)c3C)C2)cc1 [Example 9.54] | 115
C[C@H](NC(=O)c1cnco1)c1ccc(OC2CCN(c3ccnc(N4CCC(F)(F)C4)c3F)C2)cc1 (stereo partly shown) [Example 2.126] | 45
CC(=O)N[C@@H](C)c1ccc(O[C@@H]2CCN(c3ccnc(N(C)CC(F)F)c3F)C2)cc1 [Example 1.108] | 42
CC(=O)N[C@@H](C)c1ccc(O[C@@H]2CCN(c3ccnc(NC4CCCC4)c3F)C2)cc1 [Example 1.113] | 163
CCC(=O)N[C@@H](C)c1ccc(OC2CCN(c3ccnc(OCC(F)F)c3)C2)cc1 (stereo partly shown) [Example 2.106] | 88
CCCOc1ccnc(N2CC[C@@H](Oc3ccc([C@H](C)NC(C)=O)cc3)C2)c1F [Example 9.68] | 251
CC(=O)N[C@@H](C)c1ccc(O[C@@H]2CCN(c3nccc(N(C)CC4CC4)c3F)C2)cc1 [Example 1.100] | 385
CC(=O)N[C@@H](C)c1ccc(O[C@@H]2CCN(c3ccnc(OCc4ccc(F)cc4)c3)C2)cc1 [Example 9.6] | 90
CC(=O)N[C@@H](C)c1ccc(O[C@@H]2CCN(c3cccc(N4CC=CC4)n3)C2)cc1 [Example 10.44] | 665
CC(=O)Nc1nc(C)c(C(=O)N[C@@H](C)c2ccc(O[C@@H]3CCN(c4ccnc(OC(C)C)c4)C3)cc2)s1 [Example 1.49] | 179
CC(=O)N[C@@H](C)c1ccc(O[C@@H]2CCN(c3ccnc(N4CCCC4)c3C)C2)cc1 [Example 1.125] | 402
CC(=O)N[C@@H](C)c1ccc(O[C@@H]2CCN(c3ccnc(OCC(C)(F)F)c3Cl)C2)cc1 [Example 9.77] | 59
Cc1[nH]ncc1C(=O)N[C@@H](C)c1ccc(OC2CCN(c3ccnc(OCC4CC4)c3)C2)cc1 (stereo partly shown) [Example 2.84] | 169
COc1cc(OCC2CC2(F)F)cnc1N1CCC(Oc2ccc([C@H](C)NC(C)=O)cc2)C1 (stereo partly shown) [Example 1.81] | 425
CCCOc1ccc(N2CC[C@@H](Oc3ccc([C@H](C)NC(=O)c4sc(NC(C)=O)nc4C)cc3)C2)nc1 [Example 1.50] | 170
COCCOc1cc(N2CC[C@@H](Oc3ccc([C@H](C)NC(C)=O)cc3)C2)ccn1 [Example 9.18] | 482

Structure (SMILES) | IC50 [nM]
CCNc1cccc(N2CC[C@@H](Oc3ccc([C@H](C)NC(C)=O)cc3)C2)n1 [Example 10.12] | 691
C[C@H](NC(=O)CO)c1ccc(OC2CCN(c3ccnc(OCC4CC4)c3)C2)cc1 (stereo partly shown) [Example 2.72] | 130
CCC(CC)Oc1cc(N2CC[C@@H](Oc3ccc([C@H](C)NC(C)=O)cc3)C2)ccn1 [Example 9.20] | 70
CCC(=O)Nc1nc(C)c(C(=O)N[C@@H](C)c2ccc(O[C@@H]3CCN(c4ccnc(NCC(F)F)c4Cl)C3)cc2)s1 [Example 1.143] | 116
C[C@H](NC(=O)c1cnco1)c1ccc(OC2CCN(c3ccc(OC[C@H]4CC4(F)F)cn3)C2)cc1 (stereo partly shown) [Example 2.92] | 110
CC(=O)N[C@@H](C)c1ccc(OC2CCN(c3cccc(C4(S(C)(=O)=O)CC4)n3)C2)cc1 (stereo partly shown) [Example 1.79] | 950
C[C@H](NC(=O)C1(C(F)(F)F)CC1)c1ccc(OC2CCN(c3cccc(C(F)(F)F)n3)C2)cc1 (stereo partly shown) [Example 2.37] | 247
C[C@H](NC=O)c1ccc(O[C@@H]2CCN(c3cccc(C(F)(F)F)n3)C2)cc1 [Example 12, N—((S)-1-(4-((R)-1-(6-(Trifluoromethyl)pyridin-2-yl)pyrrolidin-3-yloxy)phenyl)ethyl) formamide] | 888
COc1cccc(N2CCC(Oc3ccc([C@H](C)NC(C)=O)cc3)C2)n1 (stereo partly shown) [Example 1.57] | 678
CC(=O)N[C@@H](C)c1ccc(O[C@@H]2CCN(c3ccnc(O[C@H]4CCOC4)c3)C2)cc1 [Example 9.25] | 572
CC(=O)N[C@@H](C)c1ccc(O[C@@H]2CCN(c3ccc(OCCCF)cn3)C2)cc1 [Example 11.3] | 131
CC(=O)N[C@@H](C)c1ccc(OC2CCN(c3ncc(OCC4CC4(F)F)cc3F)C2)cc1 (stereo partly shown) [Example 1.23] | 115
CC(=O)N[C@@H](C)c1ccc(OC2CCN(c3ncc(OCCC4CC4)cc3F)C2)cc1 (stereo partly shown) [Example 1.34] | 434
COCCN(C)c1nccc(N2CC[C@@H](Oc3ccc([C@H](C)NC(C)=O)cc3)C2)c1F [Example 1.106] | 69
CCOc1nccc(N2CC[C@@H](Oc3ccc([C@H](C)NC(C)=O)cc3)C2)c1Cl [Example 9.76] | 114
CCNC(=O)N[C@@H](C)c1ccc(OC2CCN(c3ccc(OCC4CC4(F)F)cn3)C2)cc1 (stereo partly shown) [Example 3.3] | 150
CC(=O)N[C@@H](C)c1ccc(O[C@@H]2CCN(c3ccnc(N4CCCCC4)c3F)C2)cc1 [Example 1.102] | 61
CC(=O)N[C@@H](C)c1ccc(O[C@@H]2CCN(c3ccnc(N4CCC4)c3C)C2)cc1 [Example 1.126] | 597
CC(=O)N[C@@H](C)c1ccc(O[C@@H]2CCN(c3ccnc(OCC4(C)CC4)c3)C2)cc1 [Example 9.16] | 35
CC(=O)N[C@@H](C)c1ccc(O[C@@H]2CCN(c3ccnc(OC4Cc5ccccc5C4)c3)C2)cc1 [Example 9.13] | 230
CC(=O)Nc1nc(C)c(C(=O)N[C@@H](C)c2ccc(OC3CCN(c4ccnc(N5CCC(F)(F)C5)c4F)C3)cc2)s1 (stereo partly shown) [Example 2.123] | 58

Structure (SMILES) | IC50 [nM]
C[C@H](NC(=O)c1ccno1)c1ccc(OC2CCN(c3cccc(C(F)(F)F)n3)C2)cc1 (stereo partly shown) [Example 2.52] | 275
CCC(=O)N[C@@H](C)c1ccc(OC2CCN(c3ccnc(OCC4CC4)c3)C2)cc1 (stereo partly shown) [Example 2.66] | 50
CCC(COC)Oc1cc(N2CC[C@@H](Oc3ccc([C@H](C)NC(C)=O)cc3)C2)ccn1 (stereo partly shown) [Example 9.46] | 544
C[C@H](NC(=O)CCC#N)c1ccc(OC2CCN(c3cccc(C(F)(F)F)n3)C2)cc1 (stereo partly shown) [Example 2.42] | 675
CCCOc1cnc(N2CCC(Oc3ccc([C@H](C)NC(C)=O)cc3)C2)c(F)c1 (stereo partly shown) [Example 1.11] | 151
CCCOc1ccc(N2CCC(Oc3ccc([C@H](C)NC(C)=O)cc3)C2)cn1 (stereo partly shown) [Example 1.4] | 193
CCOc1cc(N2CCC(Oc3ccc([C@H](C)NC(C)=O)cc3)C2)c(F)cn1 (stereo partly shown) [Example 1.30] | 117
Cc1nocc1C(=O)N[C@@H](C)c1ccc(OC2CCN(c3cccc(C(F)(F)F)n3)C2)cc1 (stereo partly shown) [Example 2.43] | 57
CC(=O)N[C@@H](C)c1ccc(O[C@@H]2CCN(c3ccnc(OCc4ccccn4)c3)C2)cc1 [Example 9.33] | 535
C[C@H](NC(=O)c1cncs1)c1ccc(OC2CCN(c3ccc(OCC4CC4(F)F)cn3)C2)cc1 (stereo partly shown) [Example 2.59] | 55
CCCNc1nccc(N2CCC(Oc3ccc([C@H](C)NC(=O)OC)cc3)C2)c1F (stereo partly shown) [Example 4.8] | 77
CC(=O)N[C@@H](C)c1ccc(O[C@@H]2CCN(c3ccnc(OC4CCC4)c3)C2)cc1 [Example 9.1] | 39
CC(=O)Nc1nc(C)c(C(=O)N[C@@H](C)c2ccc(OC3CCN(c4ccc(OC[C@H]5CC5(F)F)cn4)C3)cc2)s1 (stereo partly shown) [Example 2.90] | 9
C[C@H](NC(=O)c1cnsc1)c1ccc(OC2CCN(c3cccc(C(F)(F)F)n3)C2)cc1 (stereo partly shown) [Example 2.45] | 100
COCC(=O)Nc1nc(C)c(C(=O)N[C@@H](C)c2ccc(OC3CCN(c4ccnc(OCC5CC5)c4)C3)cc2)s1 (stereo partly shown) [Example 2.75] | 39
Cc1nc(N)sc1C(=O)N[C@@H](C)c1ccc(O[C@@H]2CCN(c3ccc(OCC4CC4(F)F)cn3)C2)cc1 (stereo partly drawn) [Example 13, 2-Amino-N—((1S)-1-(4-((3R)-1-(5-((2,2-difluorocyclopropyl)methoxy)pyridin-2-yl)pyrrolidin-3-yloxy)phenyl)ethyl)-4-methylthiazole-5-carboxamide] | 240
COc1c(N2CC[C@@H](Oc3ccc([C@H](C)NC(C)=O)cc3)C2)ccnc1N1CCC(F)(F)C1 [Example 1.146] | 109
CC(=O)NC1CCN(C(=O)N[C@@H](C)c2ccc(OC3CCN(c4ccc(OCC5CC5(F)F)cn4)C3)cc2)C1 (stereo partly shown) [Example 3.19] | 1440
CC(=O)N[C@@H](C)c1ccc(O[C@@H]2CCN(c3ccnc(OCC4CC4(F)F)c3C)C2)cc1 (stereo partly shown) [Example 9.60] | 40
